The values that follow come from publication PMC12102759 (Protein Science : A Publication of the Protein Society, 2025).

The test system of this assay is PABPC1 PABC. The class given is binding, human. Particulars: DMS-BM library, bait PABPC1 PABC, row aa = residue at this position; for DMS-derived PSSM value (averaged), position T1 / DMS-derived PSSM value, position T3 / DMS-derived PSSM value, position T1: T = wild type; for DMS-derived PSSM value (averaged), position R12 / DMS-derived PSSM value, position R14: R = wild type.

Where [1] appears, read: prey ATXN2, peptide TLNPNAKEFNPRSFSQ, N = wild type.
[2] abbreviates: prey ATXN2, TLNPNAKEFNPRSF(averaged) over the two overlapping peptides.
Setting [3] is: prey ATXN2, peptide KSTLNPNAKEFNPRSF, S = wild type.
Where [4] appears, read: prey ATXN2, TLNPNAKEFNPRSF(averaged) over the two overlapping peptides, N = wild type.
Setting [5] is: prey ATXN2, peptide KSTLNPNAKEFNPRSF, F = wild type.
[6] abbreviates: prey ATXN2, TLNPNAKEFNPRSF(averaged) over the two overlapping peptides, L = wild type.
Setting [7] is: prey ATXN2, TLNPNAKEFNPRSF(averaged) over the two overlapping peptides, F = wild type.
The mark [8] stands for this setting: prey ATXN2, peptide TLNPNAKEFNPRSFSQ, P = wild type.
Where [9] appears, read: prey ATXN2, peptide KSTLNPNAKEFNPRSF, N = wild type.
Setting [10] is: prey ATXN2, peptide KSTLNPNAKEFNPRSF
The mark [11] stands for this setting: prey ATXN2, TLNPNAKEFNPRSF(averaged) over the two overlapping peptides, K = wild type.
Where [12] appears, read: prey ATXN2, peptide TLNPNAKEFNPRSFSQ
The mark [13] stands for this setting: prey ATXN2, peptide KSTLNPNAKEFNPRSF, K = wild type.
The mark [14] stands for this setting: prey ATXN2, peptide TLNPNAKEFNPRSFSQ, F = wild type.
The mark [15] stands for this setting: prey ATXN2, TLNPNAKEFNPRSF(averaged) over the two overlapping peptides, A = wild type.
Where [16] appears, read: prey ATXN2, peptide TLNPNAKEFNPRSFSQ, S = wild type.

Where two headings read alike, the source gives them in different places.

In the case of TLNPNAKEFNPRSFSQ N3Q (TLQPNAKEFNPRSFSQ), the “DMS-derived PSSM value, position N3” value under setting [1] is on record as 0.055.

As for “TLNPNAKEFNPRSF(averaged) T1A (ALNPNAKEFNPRSF)”, the “DMS-derived PSSM value (averaged), position T1” value under setting [2] was 0.03742.

For the substance KSTLNPNAKEFNPRSF S2F (KFTLNPNAKEFNPRSF), the “DMS-derived PSSM value, position S2” value under setting [3] is given as 0.06555.

On to “KSTLNPNAKEFNPRSF E10F (KSTLNPNAKFFNPRSF)”, for which the “DMS-derived PSSM value, position E10” value (prey ATXN2, peptide KSTLNPNAKEFNPRSF, E = wild type) is on record as 0.

With “TLNPNAKEFNPRSF(averaged) N5Y (TLNPYAKEFNPRSF)”, under setting [4], the “DMS-derived PSSM value (averaged), position N5” value came to 0.004226.

“KSTLNPNAKEFNPRSF F16K (KSTLNPNAKEFNPRSK)”: the “DMS-derived PSSM value, position F16” value under setting [5] was determined as 0.01965.

For the substance KSTLNPNAKEFNPRSF A8I (KSTLNPNIKEFNPRSF), where the note is “prey ATXN2, peptide KSTLNPNAKEFNPRSF, A = wild type”, the “DMS-derived PSSM value, position A8” value came out at 0.

Take “TLNPNAKEFNPRSF(averaged) N5Q (TLNPQAKEFNPRSF)”: the “DMS-derived PSSM value (averaged), position N5” value under setting [4] turned out to be 0.02375.

As for “TLNPNAKEFNPRSF(averaged) L2H (THNPNAKEFNPRSF)”, the “DMS-derived PSSM value (averaged), position L2” value under setting [6] came to 0.

For “TLNPNAKEFNPRSF(averaged) F14H (TLNPNAKEFNPRSH)”, the “DMS-derived PSSM value (averaged), position F14” value under setting [7] worked out at 0.06346.

Regarding TLNPNAKEFNPRSFSQ P4W (TLNWNAKEFNPRSFSQ), the “DMS-derived PSSM value, position P4” value under setting [8] came to 0.

Take “KSTLNPNAKEFNPRSF F11K (KSTLNPNAKEKNPRSF)”: the “DMS-derived PSSM value, position F11” value under setting [5] was determined as 0.006092.

“KSTLNPNAKEFNPRSF S15F (KSTLNPNAKEFNPRFF)”: the “DMS-derived PSSM value, position S15” value under setting [3] is 0.0234.

Take “KSTLNPNAKEFNPRSF N12A (KSTLNPNAKEFAPRSF)”: under setting [9], the “DMS-derived PSSM value, position N12” value turned out to be 0.1266.

Take “TLNPNAKEFNPRSF(averaged) F14E (TLNPNAKEFNPRSE)”: under setting [7], the “DMS-derived PSSM value (averaged), position F14” value is recorded as 0.01777.

On to KSTLNPNAKEFNPRSF T3Y (KSYLNPNAKEFNPRSF), for which, under setting [10], the “DMS-derived PSSM value, position T3” value is on record as 0.005309.

Take KSTLNPNAKEFNPRSF T3E (KSELNPNAKEFNPRSF): the “DMS-derived PSSM value, position T3” value under setting [10] came to 0.2365.

Consider “TLNPNAKEFNPRSF(averaged) K7M (TLNPNAMEFNPRSF)”, for which the “DMS-derived PSSM value (averaged), position K7” value under setting [11] is 0.05548.

Consider “TLNPNAKEFNPRSF(averaged) R12M (TLNPNAKEFNPMSF)”, for which the “DMS-derived PSSM value (averaged), position R12” value under setting [2] was found to be 0.02329.

TLNPNAKEFNPRSFSQ T1M (MLNPNAKEFNPRSFSQ): under setting [12], the “DMS-derived PSSM value, position T1” value is on record as 0.006287.

With “TLNPNAKEFNPRSF(averaged) R12N (TLNPNAKEFNPNSF)”, the “DMS-derived PSSM value (averaged), position R12” value under setting [2] is 0.02727.

On to TLNPNAKEFNPRSFSQ L2P (TPNPNAKEFNPRSFSQ), for which the “DMS-derived PSSM value, position L2” value (prey ATXN2, peptide TLNPNAKEFNPRSFSQ, L = wild type) is 0.03756.

For the substance “TLNPNAKEFNPRSF(averaged) K7A (TLNPNAAEFNPRSF)”, under setting [11], the “DMS-derived PSSM value (averaged), position K7” value came to 0.1204.

Turning to “KSTLNPNAKEFNPRSF S15K (KSTLNPNAKEFNPRKF)”, the “DMS-derived PSSM value, position S15” value under setting [3] came to 0.

Take KSTLNPNAKEFNPRSF K9Y (KSTLNPNAYEFNPRSF): under setting [13], the “DMS-derived PSSM value, position K9” value is given as 0.02328.

In the case of “TLNPNAKEFNPRSF(averaged) S13K (TLNPNAKEFNPRKF)”, for the setting “prey ATXN2, TLNPNAKEFNPRSF(averaged) over the two overlapping peptides, S = wild type”, the “DMS-derived PSSM value (averaged), position S13” value was determined as 0.003966.

Regarding “TLNPNAKEFNPRSF(averaged) T1Q (QLNPNAKEFNPRSF)”, the “DMS-derived PSSM value (averaged), position T1” value under setting [2] is given as 0.003845.

In the case of “TLNPNAKEFNPRSF(averaged) P11K (TLNPNAKEFNKRSF)”, the “DMS-derived PSSM value (averaged), position P11” value (prey ATXN2, TLNPNAKEFNPRSF(averaged) over the two overlapping peptides, P = wild type) was determined as 0.

On to KSTLNPNAKEFNPRSF K9S (KSTLNPNASEFNPRSF), for which the “DMS-derived PSSM value, position K9” value under setting [13] was found to be 0.05789.

In the case of TLNPNAKEFNPRSFSQ T1E (ELNPNAKEFNPRSFSQ), the “DMS-derived PSSM value, position T1” value under setting [12] was determined as 0.003724.

With KSTLNPNAKEFNPRSF N5H (KSTLHPNAKEFNPRSF), under setting [9], the “DMS-derived PSSM value, position N5” value was determined as 0.

With TLNPNAKEFNPRSFSQ A6K (TLNPNKKEFNPRSFSQ), the “DMS-derived PSSM value, position A6” value (prey ATXN2, peptide TLNPNAKEFNPRSFSQ, A = wild type) is 0.

“TLNPNAKEFNPRSF(averaged) F9V (TLNPNAKEVNPRSF)”: under setting [7], the “DMS-derived PSSM value (averaged), position F9” value came out at 0.0004395.

KSTLNPNAKEFNPRSF K9F (KSTLNPNAFEFNPRSF): the “DMS-derived PSSM value, position K9” value under setting [13] worked out at 0.02411.

Consider TLNPNAKEFNPRSFSQ F9H (TLNPNAKEHNPRSFSQ), for which the “DMS-derived PSSM value, position F9” value under setting [14] came to 0.

In the case of “KSTLNPNAKEFNPRSF R14E (KSTLNPNAKEFNPESF)”, under setting [10], the “DMS-derived PSSM value, position R14” value is on record as 0.01157.

Turning to “TLNPNAKEFNPRSF(averaged) N5P (TLNPPAKEFNPRSF)”, under setting [4], the “DMS-derived PSSM value (averaged), position N5” value stood at 4.119e-5.

For the substance “KSTLNPNAKEFNPRSF N12Y (KSTLNPNAKEFYPRSF)”, the “DMS-derived PSSM value, position N12” value under setting [9] is 0.1026.

Take “TLNPNAKEFNPRSF(averaged) T1W (WLNPNAKEFNPRSF)”: under setting [2], the “DMS-derived PSSM value (averaged), position T1” value came out at 0.008583.

Consider “KSTLNPNAKEFNPRSF F16D (KSTLNPNAKEFNPRSD)”, for which the “DMS-derived PSSM value, position F16” value under setting [5] worked out at 0.02019.

For the substance “TLNPNAKEFNPRSF(averaged) A6K (TLNPNKKEFNPRSF)”, the “DMS-derived PSSM value (averaged), position A6” value under setting [15] is reported as 0.

On to TLNPNAKEFNPRSFSQ F9A (TLNPNAKEANPRSFSQ), for which the “DMS-derived PSSM value, position F9” value under setting [14] stood at 0.

Regarding TLNPNAKEFNPRSFSQ N5P (TLNPPAKEFNPRSFSQ), under setting [1], the “DMS-derived PSSM value, position N5” value is listed as 8.238e-5.

Regarding “TLNPNAKEFNPRSFSQ P11N (TLNPNAKEFNNRSFSQ)”, under setting [8], the “DMS-derived PSSM value, position P11” value is on record as 0.04264.

As to “TLNPNAKEFNPRSF(averaged) L2D (TDNPNAKEFNPRSF)”, under setting [6], the “DMS-derived PSSM value (averaged), position L2” value is 0.

For the substance “TLNPNAKEFNPRSF(averaged) A6T (TLNPNTKEFNPRSF)”, under setting [15], the “DMS-derived PSSM value (averaged), position A6” value was 0.133.

Turning to TLNPNAKEFNPRSFSQ T1Y (YLNPNAKEFNPRSFSQ), the “DMS-derived PSSM value, position T1” value under setting [12] is on record as 0.3306.

Consider “TLNPNAKEFNPRSF(averaged) N5A (TLNPAAKEFNPRSF)”, for which, under setting [4], the “DMS-derived PSSM value (averaged), position N5” value turned out to be 0.00733.

As for “KSTLNPNAKEFNPRSF R14V (KSTLNPNAKEFNPVSF)”, the “DMS-derived PSSM value, position R14” value under setting [10] came to 0.03521.

For the substance KSTLNPNAKEFNPRSF T3R (KSRLNPNAKEFNPRSF), the “DMS-derived PSSM value, position T3” value under setting [10] came out at 0.

For TLNPNAKEFNPRSFSQ K7T (TLNPNATEFNPRSFSQ), the “DMS-derived PSSM value, position K7” value (prey ATXN2, peptide TLNPNAKEFNPRSFSQ, K = wild type) was determined as 0.006845.

Regarding “TLNPNAKEFNPRSFSQ S13I (TLNPNAKEFNPRIFSQ)”, the “DMS-derived PSSM value, position S13” value under setting [16] is listed as 0.

Turning to KSTLNPNAKEFNPRSF T3H (KSHLNPNAKEFNPRSF), the “DMS-derived PSSM value, position T3” value under setting [10] amounted to 0.01262.

KSTLNPNAKEFNPRSF T3Q (KSQLNPNAKEFNPRSF): the “DMS-derived PSSM value, position T3” value under setting [10] was found to be 0.

With “KSTLNPNAKEFNPRSF F16I (KSTLNPNAKEFNPRSI)”, the “DMS-derived PSSM value, position F16” value under setting [5] is listed as 0.0559.

With TLNPNAKEFNPRSFSQ N5T (TLNPTAKEFNPRSFSQ), the “DMS-derived PSSM value, position N5” value under setting [1] is 0.0193.

On to “KSTLNPNAKEFNPRSF P13R (KSTLNPNAKEFNRRSF)”, for which the “DMS-derived PSSM value, position P13” value (prey ATXN2, peptide KSTLNPNAKEFNPRSF, P = wild type) worked out at 0.

Take KSTLNPNAKEFNPRSF N5S (KSTLSPNAKEFNPRSF): the “DMS-derived PSSM value, position N5” value under setting [9] turned out to be 0.0715.

As to “TLNPNAKEFNPRSFSQ S13G (TLNPNAKEFNPRGFSQ)”, the “DMS-derived PSSM value, position S13” value under setting [16] was found to be 0.1675.

Consider TLNPNAKEFNPRSFSQ F9N (TLNPNAKENNPRSFSQ), for which the “DMS-derived PSSM value, position F9” value under setting [14] is 0.

Regarding “TLNPNAKEFNPRSF(averaged) K7E (TLNPNAEEFNPRSF)”, the “DMS-derived PSSM value (averaged), position K7” value under setting [11] is on record as 0.01581.
